Reference: article PMC9953885 (Biosensors, 2023)
Structures can show the parent of a compound that is named as a salt.

Target: T1, human pancreatic lipase (hPL) (Homo sapiens, UniProt P16233)
T1 construct: gene PNLIP
T1 sequence (P16233 17-465): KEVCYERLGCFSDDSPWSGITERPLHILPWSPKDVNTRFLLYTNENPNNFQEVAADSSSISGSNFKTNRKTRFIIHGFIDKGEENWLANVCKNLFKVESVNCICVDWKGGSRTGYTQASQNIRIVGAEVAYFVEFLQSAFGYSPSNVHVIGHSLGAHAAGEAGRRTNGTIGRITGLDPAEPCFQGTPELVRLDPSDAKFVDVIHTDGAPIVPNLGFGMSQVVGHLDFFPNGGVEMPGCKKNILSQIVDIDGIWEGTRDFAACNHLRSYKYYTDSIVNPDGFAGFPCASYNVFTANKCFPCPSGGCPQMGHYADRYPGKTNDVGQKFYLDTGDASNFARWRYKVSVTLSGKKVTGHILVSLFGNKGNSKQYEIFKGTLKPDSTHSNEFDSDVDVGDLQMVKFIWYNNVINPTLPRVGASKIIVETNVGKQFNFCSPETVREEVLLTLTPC
Details: 10 µM; inhibitor
Protocol: First, we evaluated the inhibitory effect of 94 natural products derived from herbs and 94 drugs on hPL. In our high-throughput screening system, 1 ug/mL hPL was used, and the final concentration of the 94 natural products derived from herbs and 94 drugs used was 10 μM. Other conditions were the same as in the selectivity experiments. […] RLE was incubated with hPL and various enzymes, such as hCES1A, hCES2A, CA, AchE, BchE, 5-HKE, lysozyme, trypsin, thrombin, α-CT, FAP, PREP, pepsin, α-amylase, plasmin, notum and hSA, in a 100 µL incubation mixture consisting of Tris-HCl (pH = 7.4, 25 mM), NaCl (150 mM), CaCl2 (1 mM) and porcine bile salt (0.1 mg/mL) at a concentration of 1.5 µg/mL. The reaction was initiated by adding RLE to the preincubated enzyme mixture at 37 °C, and metabolite formation was determined by measuring the fluorescence intensity of resorufin at 590 nm. In addition, several amino acids (IIe, His, Trp, Val, Leu, Tyr, Ala, Thr, Pro, Asp, Lys, Met, Cys, Ser, Phe, Gly, Glu and Gln), ions (Ni^2+, Ca^2+, Na^+, K^+, Cu^2+, Zn^2+, Mg^2+, NH4^+, Cu^+, Fe^2+ and CN^-) and GSH were measured. The concentration of these interfering factors was 5 μM. […] In this case, a visual high-throughput assay was established to screen hPL inhibitors, using RLE as a fluorogenic substrate in a 96-well microplate.

SMILES | % of control remaining
COC(=O)[C@H](c1ccccc1Cl)N1CCc2sccc2C1 [Clopidogrel sulfate] | 90.49%
CCCCC1OC(=O)C2=C1CCC=C2 (stereo not shown) [3-N-butyl-4,5-dihydrophthalide] | 75.65%
Cc1coc2c1CCC(C)C2 (stereo not shown) [Menthofuran] | 108.33%
Cc1cc(=O)c2c(O)c3c(O[C@@H]4O[C@H](CO)[C@@H](O)[C@H](O)[C@H]4O)cccc3cc2o1 [Cassiaside] | 81.67%
COC(=O)N[C@H](C(=O)N[C@@H](Cc1ccccc1)[C@@H](O)CN(Cc1ccc(-c2ccccn2)cc1)NC(=O)[C@@H](NC(=O)OC)C(C)(C)C)C(C)(C)C [Atazanavir] | 79.92%
O=C(O)/C=C/c1ccc(O)c(O)c1 [Caffeic acid] | 71.45%
C[C@@H](Oc1cc(-c2cnn(C3CCNCC3)c2)cnc1N)c1c(Cl)ccc(F)c1Cl [Crizotinib] | 85.14%
CC1=C(C(=O)O)N2C(=O)[C@@H](NC(=O)[C@H](N)c3ccccc3)[C@H]2SC1 [Cephalexin] | 109.58%
C=C1C(=O)O[C@@H]2C[C@@]3(C)CCC[C@H](C)C3=C[C@H]12 [Alantolactone] | 61.11%
C[C@@H]1CC[C@@]2(NC1)O[C@H]1C[C@H]3[C@@H]4CC=C5C[C@@H](O[C@@H]6O[C@H](CO)[C@@H](O[C@@H]7O[C@@H](C)[C@H](O)[C@@H](O)[C@H]7O)[C@H](O)[C@H]6O)CC[C@]5(C)[C@H]4CC[C@]3(C)[C@H]1[C@@H]2C [Khasianine] | 102.50%
COc1cc(O)cc2c1C(=O)C[C@@H](c1ccccc1)O2 [Alpinetin] | 107.78%
COc1ccc(-c2coc3cc(O[C@@H]4O[C@H](CO)[C@@H](O)[C@H](O)[C@H]4O)ccc3c2=O)cc1O [Calycosin 7-O-glucoside] | 84.02%

Other lines, results leading:

% of control remaining | SMILES
70.02% | C=C1C(=O)O[C@@H]2C[C@@]3(C)CCCC(=C)[C@@H]3C[C@H]12 [Isoalantolactone]
91.97% | Cc1nc(Nc2ncc(C(=O)Nc3c(C)cccc3Cl)s2)cc(N2CCN(CCO)CC2)n1 [Dasatinib]
106.17% | COc1c(O)cc(O)c2c(=O)cc(-c3ccccc3)oc12 [Wogonin]
91.01% | CN(C/C=C/C#CC(C)(C)C)Cc1cccc2ccccc12 [Terbinafine Hydrochloride]
72.50% | O=C(O)/C=C/c1ccccc1 [trans-Cinnamic acid]
72.74% | COC(=O)/C=C/c1ccc(O)c(O)c1 [Methyl caffeate]
92.51% | CN(C)CCCN1c2ccccc2CCc2ccccc21 [Imipramine hydrochloride]
67.52% | COc1ccc(CCC(=O)c2ccc(O)cc2)c(OC)c1 [Loureirin A]
97.17% | O=C1c2c(O)cc(O)cc2O[C@H](c2ccc(O)c(O)c2)[C@H]1O [TGaxifolin]
76.06% | O=c1cc(-c2ccc(O)c(O)c2)oc2c([C@@H]3O[C@H](CO)[C@@H](O)[C@H](O)[C@H]3O)c(O)cc(O)c12 [Orientin]
75.70% | COc1ccc(-c2cc(=O)c3c(O)c(OC)c(OC)cc3o2)cc1 [Salvigenin]
106.48% | O=c1c(-c2ccc(O)cc2)coc2cc(O)cc(O)c12 [Genistein]
94.24% | COC(=O)[C@H]1[C@H]2C[C@@H]3c4[nH]c5cc(OC)ccc5c4CCN3C[C@H]2C[C@@H](OC(=O)c2cc(OC)c(OC)c(OC)c2)[C@@H]1OC [Reserpine]
125.97% | C[C@@H]1C(=O)O[C@H]2C[C@@]34[C@H]5C[C@@H](C(C)(C)C)[C@]36[C@@H](OC(=O)[C@@H]6O)O[C@@]4(C(=O)O5)[C@]21O [Ginkgolide A]
84.30% | COc1ccc(-c2cc(=O)c3c(O)c(OC)c(O)c(OC)c3o2)cc1 [Lysionotin]
119.27% | O=C1[C@H](CC[C@H](O)c2ccc(F)cc2)[C@@H](c2ccc(O)cc2)N1c1ccc(F)cc1 [Ezetimibe]
